Test results: patent US20040106588A1 (priority 2002, published 2004)
Read-outs that look alike come from different tables or passages of the source.

Key:
[1] = tested on: II-4 cells in SCID mice; experiment: Third study: topical alpha-DFMO, triamcinolone or the combination on II-4 tumor volume in SCID mice; type: in vivo, mouse; settings: single agent, topical daily from 24 hours after implantation; alpha-DFMO 5% or 10%, triamcinolone 0.05% or 0.1%; FIG. 6
Experimental: The control groups received either no treatment (n=4), or the ointment base (hydrophilic ointment, U.S.P. alone (n=4), or the ointment base (hydrophilic ointment, U.S.P. alone (n=4). Treatments were given daily to the tumor-bearing […] skin continuously beginning 24 hours after tumor implantation. Palpable tumors were measured bi-dimensionally using calipers, three times per week, until tumor sizes approximated 1,500 mm^3 (about 1.5 g). The mice were then euthanized.

[2] = tested on: II-4 human squamous cell skin cancer cells; experiment: In vitro sulforhodamine B surviving fraction study of alpha-DFMO, triamcinolone and diclofenac; type: cell-based; settings: single drug, Day 1 to Day 7
Experimental: This study was directed to II-4 human squamous cell skin cancer cells.
The cell culture was maintained as a monolayer culture. The cells were plated in 96 well microtiter plates on Day 0 of the study. Some of such wells were used as control wells, so no drugs were added thereto. The aforementioned combination of drugs was added to the microtiter test wells on Day 1. On Day 7, the plates were fixed with cold 10% trichloroacetic acid, and then washed four times with distilled water. Each plate was then stained with 0.4% sulforhodamine B. Excess stain was then removed by washing the plate four times with 1% acetic acid. The stained dye is then solubilized with 50 mM Tris. The stained plates were then “read”, i.e., measured for optical density, on an automatic plate reader at 540 nm. A lower optical density corresponds to a smaller volume of cancerous cells, and a higher optical density corresponds to a larger volume of cancerous cells. A surviving fraction factor fs is then computed for the treated well plates by taking the mean optical density of the treated well plates and dividing by the mean optical density of the control well plates.
As explained in the aforementioned article by Alberts, et al., a mathematically-derived expected fraction factor (fs*) can be computed for each three-drug combination by multiplying together the individual fraction factors for the three individual drugs. A ratio can then be computed for the actual experimentally-determined fraction factor fs divided by the expected fraction factor fs*, and this ratio is presented in the rightmost column of the table in FIG. 7. […] The lower the ratio, the more synergistic is the combination.

[3] = Skin reactions after topical application in studies treating actinic keratoses; type: in vivo, human; settings: alpha-DFMO alone, without topical steroid or NSAID, past studies
Source text: The new combination also provides a new method for treating vulvar neoplasia which is much more likely to be tolerated than currently available methods. […] Though topical application to the inside of the mouth may be more difficult, it is preferably achieved by providing a thick gel or cream, and applying to the affected area, preferably during the middle of the night when the mouth is dry.

[4] = Systemic uptake after topical alpha-DFMO, animal studies; type: in vivo; settings: topical application
Source text: The generic name for alpha-DFMO is eflomithine, which is a racemic mixture of two enantiomers. […] Nonetheless, it may be possible to obtain the advantages of the present invention as described above using only one or the other of the two enantiomers that form the racemic mixture of alpha-DFMO; accordingly, the use of the term “alpha-DFMO” herein should be understood, for purposes of the present patent application, to include both the racemic mixture of the two enantiomers that normally make up alpha-DFMO, as well as each of the two enantiomers that collectively make up the racemic mixture of alpha-DFMO.

[5] = tested on: cervical intraepithelial neoplasia level III; settings: cited from earlier work
[6] = tested on: UVB-induced skin cancers; settings: p.o.; 38% in placebo treated controls; cited from earlier work
[7] = tested on: UVB-induced skin cancers; settings: topical, acetone vehicle; cited from earlier work
[8] = tested on: human colon tumor xenograft (T6) cells; settings: in vitro; cited from earlier work
[9] = tested on: human lung adenocarcinoma cell line (A549); settings: A549, in vitro; cited from earlier work
[10] = tested on: polyamine de novo synthesis and DNA polymerase; settings: colon and small intestine; cited from earlier work
[11] = tested on: Human Cervical Epithelial and Cancerous Cell Lines; settings: in vitro, dose dependent and time dependent, partially through inducing apoptosis; cited from earlier work
[12] = tested on: actinic keratoses; settings: topical hydrophilic cream, human subjects; cited from earlier work
[13] = tested on: colon adenocarcinomas; settings: studies referred to by Reddy et al; cited from earlier work
[14] = topical, cited from earlier work
[15] = tested on: actinic keratoses; settings: 0.5% cream added to topical fluorouracil; cited from earlier work
[16] = 0.06 to 1.0 g/m^2 per day for 30 days

## NCCC[C@](N)(C(=O)O)C(F)F (racemic) [alpha-DFMO, Alpha-Difluoromethylornithine]
[1]
  rate of tumor growth (tumor volume over fifty days): decreases the rate of tumor growth
[2]; 50 μM
  surviving fraction factor fs: 0.749
[2]; 75 μM
  surviving fraction factor fs: 0.807
[3]
  incidence of skin reactions: ~20%
[4]
  systemic uptake: negligible systemic uptake
[5]; 0.06 to 1.0 g/m^2 per day for 30 days, 30 women
  overall response rate: 50%
[5]; [16]
  patients experiencing a complete response: five out of thirty
  patients experiencing a partial response (reduction to levels I or II): ten out of thirty
  toxicity: minimal toxicity
[5]; serum
  dose down to which serum polyamine modulation was significant: 0.125 g/m^2 per day
[5]; tissue
  dose level down to which tissue polyamine modulation was significant: 0.5 g/m^2 per day
[6]
  UVB-induced skin cancers in treated animals: 9%
[7]
  UVB-induced skin cancers: dramatically reduced
[8]
  growth inhibition: dose-dependent growth-inhibitory effect
[9]
  growth inhibition: dose-dependent growth-inhibitory effect
[10]
  DMH-induced activation of polyamine de novo synthesis and DNA polymerase: completely prevented
[11]
  growth of cervical pre-cancerous and cancerous cells: inhibits the growth
[12]
  number of AKs on the arms: reduced the number of AKs
[13]
  effect on colon adenocarcinomas: inhibited colon adenocarcinomas

## O=c1[nH]cc(F)c(=O)[nH]1 [5-FU, 5-fluorouracil]
[14]; in the vagina
  tolerability: relatively well tolerated
[14]; on the vulva
  tolerability: extremely poorly tolerated

## CC(=O)Oc1ccccc1C(=O)O [aspirin]
[13]
  effect on colon adenocarcinomas: inhibited colon adenocarcinomas

## C=CCSSCC=C [diallyl disulfide]
[13]
  effect on colon adenocarcinomas: inhibited colon adenocarcinomas

## O=C(O)Cc1ccccc1Nc1c(Cl)cccc1Cl [diclofenac]
[2]; 150 μM
  surviving fraction factor fs: 0.703
[2]; 175 μM
  surviving fraction factor fs: 0.518

## CC(C)Cc1ccc(C(C)C(=O)O)cc1 (centres unmarked) [ibuprofen]
[13]
  effect on colon adenocarcinomas: inhibited colon adenocarcinomas

## Cc1c(-c2cnccn2)ssc1=S [oltipraz]
[13]
  effect on colon adenocarcinomas: inhibited colon adenocarcinomas

## CN1C(C(=O)Nc2ccccn2)=C(O)c2ccccc2S1(=O)=O [piroxicam]
[13]
  effect on colon adenocarcinomas: inhibited colon adenocarcinomas

## CC1=C(CC(=O)O)c2cc(F)ccc2/C1=C\c1ccc([S+](C)[O-])cc1 (centres unmarked) [sulindac]
[13]
  effect on colon adenocarcinomas: inhibited colon adenocarcinomas

## CC1(C)O[C@@H]2C[C@H]3[C@@H]4CCC5=CC(=O)C=C[C@]5(C)[C@@]4(F)[C@@H](O)C[C@]3(C)[C@]2(C(=O)CO)O1 [triamcinolone, triamcinolone acetonide]
[1]
  rate of tumor growth (tumor volume over fifty days): decreases the rate of tumor growth
[2]; 100 μM
  surviving fraction factor fs: 0.999
[2]; 150 μM
  surviving fraction factor fs: 0.999
[2]; 200 μM
  surviving fraction factor fs: 0.872
[15]
  effect on inflammatory response to fluorouracil: reduce inflammatory response
  effect on the effectiveness of fluorouracil: did not alter the effectiveness of the fluorouracil
